Assay results: patent publication US20130324555A1, “Method of use of pharmaceutical formulations for the treatment of apicomplexan diseases in animals” (priority 2012, published 2013)

How the values were obtained:
[1] = Hydrolytic stability of acylated derivatives (data not shown); type: physicochemical
Procedure: A cursory study of the effect of capping the phenol of 4 via acylation was undertaken. The acylated derivatives 7 were prepared and tested. […] The intrinsic activity of intact 7a cannot yet be ruled out, and this interesting phenomenon is currently under study.

[2] = In vivo oral toxicity in mice; conditions: for toxic effects when dosed orally: gavage daily for nine days, 100 mg/kg; for signs of toxicity in mice, in words: mouse, in vivo
Procedure: Selected compounds were evaluated for in vivo efficacy against T. gondii and P. falciparum. To asses toxic effects when administered orally, selected compounds were administered orally to mice daily for nine days at a dose of 100 mg/kg. At the end of the ten days, the animals were evaluated for toxic effects.
Todetermine whether 14a or 14b exerted toxic effects when dosed orally, each compound was administered by gavage to mice daily for nine days at a dose of 100 mg/kg.
HLA B07 transgenic mice were produced at Pharmexa-Epimmune (San Diego, Calif., USA) and bred at the University of Chicago. All studies were conducted with Institutional Animal Care and Use Committee at the USDA, the University of Chicago, and the University of Strathclyde.

[3] = test system: T. gondii Me-49 oocysts; test: Mouse model of T. gondii oocyst infection, Me-49; type: in vivo, mice
Procedure: (§1) Compounds 14a and 14b were tested for efficacy against T. gondii in the oocyst stage following per oral challenge in mice. Mice were infected by oral gavage with ME49 or TgGoatUS4 oocysts. Mice were treated with either 100 mg/kg or 25 mg/kg) of test substance.
(§2) Thus, compounds 14a and 14b were tested for efficacy in a mouse model of T. gondii oocyst infection. The oocyst form of the parasite is excreted by cats and is often the form by which people and other animals become infected. This oocyst infection in mice is very virulent, and fatal. Mice were infected by oral gavage with ME49 or TgGoatUS4 oocysts. Mice were treated with either a high dose (100 mg/kg) or low dose (25 mg/kg) of 14a or 14b 1 mL suspension via oral gavage, or were not treated. […] Treatment with 14a and 14b increased survival by 1 day (Table 6, FIGS. 8 and 9).
(§3) HLA B07 transgenic mice were produced at Pharmexa-Epimmune (San Diego, Calif., USA) and bred at the University of Chicago. […]
(§4) Oocysts were obtained by feeding infected tissues of Swiss Webster mice to cats, sporulated in 2% sulfuric acid on a shaker for one week, and stored at 4° C. until used (Dubey 2010). Oocysts were counted in a disposable hemocytometer and diluted 10-fold from 10^−1 to 10^−7 to reach an end point of ≅1 oocyst. […]

[4] = test system: T. gondii TgGoatUS4 oocysts; test: Mouse model of T. gondii oocyst infection, TgGoatUS4; type: in vivo, mice
Procedure: as §1, §2, §3, §4

SMILES: O=C(Oc1ccc(Cl)cc1C(=O)Nc1ccc([N+](=O)[O-])cc1Cl)c1ccccc1 [Compound 7a, 4-chloro-2-((2-chloro-4-nitrophenyl)carbamoyl)phenyl benzoate]
- stability against hydrolysis [1]: hydrolytically labile under certain conditions

SMILES: CN(CC(=O)NN)C(=O)Oc1ccc(Cl)cc1C(=O)Nc1ccc([N+](=O)[O-])cc1Cl.Cl [Compound 14a, 4-chloro-2-((2-chloro-4-nitrophenyl)carbamoyl)phenyl (2-hydrazinyl-2-oxoethyl)(methyl)carbamate hydrochloride]
- toxic effects when dosed orally [2]: all mice were alive and appeared healthy
- signs of toxicity in mice, in words [2]: no signs of toxicity
- increase of survival ([3]; Me-49 oocysts, 100 or 25 mg/kg): 1 days
- survival of mice infected with T. gondii oocysts, in words ([3]; mouse, in vivo): effective at prolonging slightly the survival

SMILES: CN(CC(=O)NN)C(=O)Oc1ccc(Cl)cc1C(=O)Nc1ccc(C(F)(F)F)cc1C(F)(F)F.Cl [Compound 14b, 2-((2,4-bis(trifluoromethyl)phenyl)carbamoyl)-4-chlorophenyl (2-hydrazinyl-2-oxoethyl)(methyl)carbamate hydrochloride]
- toxic effects when dosed orally [2]: all mice were alive and appeared healthy
- signs of toxicity in mice, in words [2]: no signs of toxicity
- increase of survival ([4]; TgGoatUS4 oocysts, 100 or 25 mg/kg): 1 days
- survival of mice infected with T. gondii oocysts, in words ([4]; mouse, in vivo): effective at prolonging slightly the survival
